{"source": "paper PMC10850145", "about": "“Hormonal steroids induce multidrug resistance and stress response genes in Neisseria gonorrhoeae by binding to MtrR” (Nature Communications, 2024)", "system": "mtrC-lacZ expression", "assay_type": "cell-based, Neisseria gonorrhoeae", "conditions": "for mtrC-lacZ β-galactosidase activity, Mean: left block of sheet (mtrCDE); for β-galactosidase activity, Mean: second (right) untitled block of sheet Figure S10 (mtrC)", "key": {"[1]": {"conditions": "strain ΔmtrR + mtrR R176E, 6.25 µM hormone"}, "[2]": {"conditions": "strain ΔmtrR + mtrR R176E, 12.5 µM hormone"}, "[3]": {"conditions": "strain ΔmtrR + mtrR R176E, 25 µM hormone"}, "[4]": {"conditions": "strain ΔmtrR + mtrR R176E, 50 µM hormone"}, "[5]": {"conditions": "strain ΔmtrR + mtrR WT, 6.25 µM hormone"}, "[6]": {"conditions": "strain ΔmtrR + mtrR WT, 12.5 µM hormone"}, "[7]": {"conditions": "strain ΔmtrR + mtrR WT, 25 µM hormone"}, "[8]": {"conditions": "strain ΔmtrR + mtrR WT, 50 µM hormone"}}, "note": "Several values for one entry are separate records, joined by “and”; a condition that tells them apart may be missing. Equal entries are not always repeated. Where two headings read alike, the source gives them in different places.", "data": [{"molecule": "CC(=O)[C@H]1CC[C@H]2[C@@H]3CCC4=CC(=O)CC[C@]4(C)[C@H]3CC[C@]12C", "note": "[Progesterone, progesterone]", "values": [{"measurement": "β-galactosidase activity, mtrC-lacZ, Mean", "setting": "strain WT (FA19/pLES94-mtrC), hormone 6.25 µM", "result": 97, "unit": "Miller units"}, {"measurement": "β-galactosidase activity, mtrC-lacZ, Mean", "setting": "strain WT (FA19/pLES94-mtrC), hormone 12.5 µM", "result": 126, "unit": "Miller units"}, {"measurement": "β-galactosidase activity, mtrC-lacZ, Mean", "setting": "strain WT (FA19/pLES94-mtrC), hormone 25 µM", "result": 146, "unit": "Miller units"}, {"measurement": "β-galactosidase activity, mtrC-lacZ, Mean", "setting": "strain WT (FA19/pLES94-mtrC), hormone 50 µM", "result": 139, "unit": "Miller units"}, {"measurement": "mtrC-lacZ β-galactosidase activity, Mean", "setting": "strain WT, 6.25 µM hormone", "result": 108, "unit": "Miller units"}, {"measurement": "β-galactosidase activity, Mean", "setting": "strain WT, 6.25 µM hormone", "result": 36, "unit": "Miller units"}, {"measurement": "mtrC-lacZ β-galactosidase activity, Mean", "setting": "strain WT, 12.5 µM hormone", "result": 144, "unit": "Miller units"}, {"measurement": "β-galactosidase activity, Mean", "setting": "strain WT, 12.5 µM hormone", "result": 47, "unit": "Miller units"}, {"measurement": "mtrC-lacZ β-galactosidase activity, Mean", "setting": "strain WT, 25 µM hormone", "result": 194, "unit": "Miller units"}, {"measurement": "β-galactosidase activity, Mean", "setting": "strain WT, 25 µM hormone", "result": 70, "unit": "Miller units"}, {"measurement": "mtrC-lacZ β-galactosidase activity, Mean", "setting": "strain WT, 50 µM hormone", "result": 222, "unit": "Miller units"}, {"measurement": "β-galactosidase activity, Mean", "setting": "strain WT, 50 µM hormone", "result": 97, "unit": "Miller units"}, {"measurement": "activation of mtrC", "setting": "strain producing MtrR R176E", "result": "almost no activation"}, {"measurement": "β-galactosidase activity, mtrC-lacZ, Mean", "setting": "strain ΔmtrR (FA19 ∆mtrR/pLES94-mtrC), hormone 6.25 µM", "result": 210, "unit": "Miller units"}, {"measurement": "β-galactosidase activity, mtrC-lacZ, Mean", "setting": "strain ΔmtrR (FA19 ∆mtrR/pLES94-mtrC), hormone 12.5 µM", "result": 191, "unit": "Miller units"}, {"measurement": "β-galactosidase activity, mtrC-lacZ, Mean", "setting": "strain ΔmtrR (FA19 ∆mtrR/pLES94-mtrC), hormone 25 µM", "result": 234, "unit": "Miller units"}, {"measurement": "β-galactosidase activity, mtrC-lacZ, Mean", "setting": "strain ΔmtrR (FA19 ∆mtrR/pLES94-mtrC), hormone 50 µM", "result": 188, "unit": "Miller units"}, {"measurement": "β-galactosidase activity, mtrC-lacZ, Mean", "setting": "strain ΔmtrR + mtrR D171A (pGCC3-mtrR D171A), hormone 6.25 µM", "result": 146, "unit": "Miller units"}, {"measurement": "β-galactosidase activity, mtrC-lacZ, Mean", "setting": "strain ΔmtrR + mtrR D171A (pGCC3-mtrR D171A), hormone 12.5 µM", "result": 142, "unit": "Miller units"}, {"measurement": "β-galactosidase activity, mtrC-lacZ, Mean", "setting": "strain ΔmtrR + mtrR D171A (pGCC3-mtrR D171A), hormone 25 µM", "result": 168, "unit": "Miller units"}, {"measurement": "β-galactosidase activity, mtrC-lacZ, Mean", "setting": "strain ΔmtrR + mtrR D171A (pGCC3-mtrR D171A), hormone 50 µM", "result": 106, "unit": "Miller units"}, {"measurement": "mtrC-lacZ β-galactosidase activity, Mean", "setting": "[1]", "result": 217, "unit": "Miller units"}, {"measurement": "β-galactosidase activity, Mean", "setting": "[1]", "result": 91, "unit": "Miller units"}, {"measurement": "mtrC-lacZ β-galactosidase activity, Mean", "setting": "[2]", "result": 208, "unit": "Miller units"}, {"measurement": "β-galactosidase activity, Mean", "setting": "[2]", "result": 92, "unit": "Miller units"}, {"measurement": "mtrC-lacZ β-galactosidase activity, Mean", "setting": "[3]", "result": 226, "unit": "Miller units"}, {"measurement": "β-galactosidase activity, Mean", "setting": "[3]", "result": 111, "unit": "Miller units"}, {"measurement": "mtrC-lacZ β-galactosidase activity, Mean", "setting": "[4]", "result": 231, "unit": "Miller units"}, {"measurement": "β-galactosidase activity, Mean", "setting": "[4]", "result": 98, "unit": "Miller units"}, {"measurement": "β-galactosidase activity, mtrC-lacZ, Mean", "setting": "strain ΔmtrR + mtrR WT (pGCC3-mtrR), hormone 6.25 µM", "result": 84, "unit": "Miller units"}, {"measurement": "β-galactosidase activity, mtrC-lacZ, Mean", "setting": "strain ΔmtrR + mtrR WT (pGCC3-mtrR), hormone 12.5 µM", "result": 89, "unit": "Miller units"}, {"measurement": "β-galactosidase activity, mtrC-lacZ, Mean", "setting": "strain ΔmtrR + mtrR WT (pGCC3-mtrR), hormone 25 µM", "result": 113, "unit": "Miller units"}, {"measurement": "β-galactosidase activity, mtrC-lacZ, Mean", "setting": "strain ΔmtrR + mtrR WT (pGCC3-mtrR), hormone 50 µM", "result": 129, "unit": "Miller units"}, {"measurement": "mtrC-lacZ β-galactosidase activity, Mean", "setting": "[5]", "result": 95, "unit": "Miller units"}, {"measurement": "β-galactosidase activity, Mean", "setting": "[5]", "result": 19, "unit": "Miller units"}, {"measurement": "mtrC-lacZ β-galactosidase activity, Mean", "setting": "[6]", "result": 111, "unit": "Miller units"}, {"measurement": "β-galactosidase activity, Mean", "setting": "[6]", "result": 24, "unit": "Miller units"}, {"measurement": "mtrC-lacZ β-galactosidase activity, Mean", "setting": "[7]", "result": 124, "unit": "Miller units"}, {"measurement": "β-galactosidase activity, Mean", "setting": "[7]", "result": 34, "unit": "Miller units"}, {"measurement": "mtrC-lacZ β-galactosidase activity, Mean", "setting": "[8]", "result": 160, "unit": "Miller units"}, {"measurement": "β-galactosidase activity, Mean", "setting": "[8]", "result": 45, "unit": "Miller units"}, {"measurement": "mtrC-lacZ β-galactosidase activity, Mean", "setting": "strain ΔmtrR, 6.25 µM hormone", "result": 311, "unit": "Miller units"}, {"measurement": "β-galactosidase activity, Mean", "setting": "strain ΔmtrR, 6.25 µM hormone", "result": 126, "unit": "Miller units"}, {"measurement": "mtrC-lacZ β-galactosidase activity, Mean", "setting": "strain ΔmtrR, 12.5 µM hormone", "result": 285, "unit": "Miller units"}, {"measurement": "β-galactosidase activity, Mean", "setting": "strain ΔmtrR, 12.5 µM hormone", "result": 129, "unit": "Miller units"}, {"measurement": "mtrC-lacZ β-galactosidase activity, Mean", "setting": "strain ΔmtrR, 25 µM hormone", "result": 297, "unit": "Miller units"}, {"measurement": "β-galactosidase activity, Mean", "setting": "strain ΔmtrR, 25 µM hormone", "result": 134, "unit": "Miller units"}, {"measurement": "mtrC-lacZ β-galactosidase activity, Mean", "setting": "strain ΔmtrR, 50 µM hormone", "result": 286, "unit": "Miller units"}, {"measurement": "β-galactosidase activity, Mean", "setting": "strain ΔmtrR, 50 µM hormone", "result": 97, "unit": "Miller units"}, {"measurement": "β-galactosidase activity, Miller units (single replicate)", "setting": "ΔmtrR + mtrR WT in trans, 6.25 µM, first data set (c15-c36)", "result": 95, "unit": "Miller units"}, {"measurement": "β-galactosidase activity, Miller units (single replicate)", "setting": "ΔmtrR + mtrR WT in trans, 6.25 µM, second data set (c53-c74)", "result": "19 Miller units and 16 Miller units and 17 Miller units and 23 Miller units"}, {"measurement": "β-galactosidase activity, Miller units (single replicate)", "setting": "ΔmtrR + mtrR WT in trans, 12.5 µM, first data set (c15-c36)", "result": 114, "unit": "Miller units"}, {"measurement": "β-galactosidase activity, Miller units (single replicate)", "setting": "ΔmtrR + mtrR WT in trans, 12.5 µM, second data set (c53-c74)", "result": "22 Miller units and 26 Miller units and 24 Miller units"}, {"measurement": "β-galactosidase activity, Miller units (single replicate)", "setting": "ΔmtrR + mtrR WT in trans, 25 µM, first data set (c15-c36)", "result": 128, "unit": "Miller units"}, {"measurement": "β-galactosidase activity, Miller units (single replicate)", "setting": "ΔmtrR + mtrR WT in trans, 25 µM, second data set (c53-c74)", "result": "39 Miller units and 34 Miller units and 32 Miller units and 31 Miller units"}, {"measurement": "β-galactosidase activity, Miller units (single replicate)", "setting": "ΔmtrR + mtrR WT in trans, 50 µM, first data set (c15-c36)", "result": 194, "unit": "Miller units"}, {"measurement": "β-galactosidase activity, Miller units (single replicate)", "setting": "ΔmtrR + mtrR WT in trans, 50 µM, second data set (c53-c74)", "result": "54 Miller units and 51 Miller units and 38 Miller units and 39 Miller units"}, {"measurement": "β-galactosidase activity, Miller units (single replicate)", "setting": "ΔmtrR, 6.25 µM, first data set (c15-c36)", "result": "324 Miller units and 312 Miller units and 315 Miller units and 294 Miller units"}, {"measurement": "β-galactosidase activity, Miller units (single replicate)", "setting": "ΔmtrR, 6.25 µM, second data set (c53-c74)", "result": "161 Miller units and 130 Miller units and 118 Miller units and 97 Miller units"}, {"measurement": "β-galactosidase activity, Miller units (single replicate)", "setting": "ΔmtrR, 12.5 µM, first data set (c15-c36)", "result": "289 Miller units and 316 Miller units and 292 Miller units and 245 Miller units"}, {"measurement": "β-galactosidase activity, Miller units (single replicate)", "setting": "ΔmtrR, 12.5 µM, second data set (c53-c74)", "result": "170 Miller units and 117 Miller units and 123 Miller units and 105 Miller units"}, {"measurement": "β-galactosidase activity, Miller units (single replicate)", "setting": "ΔmtrR, 25 µM, first data set (c15-c36)", "result": "397 Miller units and 288 Miller units and 270 Miller units and 234 Miller units"}, {"measurement": "β-galactosidase activity, Miller units (single replicate)", "setting": "ΔmtrR, 25 µM, second data set (c53-c74)", "result": "195 Miller units and 111 Miller units and 136 Miller units and 96 Miller units"}, {"measurement": "β-galactosidase activity, Miller units (single replicate)", "setting": "ΔmtrR, 50 µM, first data set (c15-c36)", "result": "318 Miller units and 329 Miller units and 263 Miller units and 234 Miller units"}, {"measurement": "β-galactosidase activity, Miller units (single replicate)", "setting": "ΔmtrR, 50 µM, second data set (c53-c74)", "result": "134 Miller units and 92 Miller units and 84 Miller units and 79 Miller units"}]}]}
